For data set [1], the system named is AHH-1. Description: Induction of cell cycle arrest in human AHH-1 cells assessed as accumulation of cells at G1 phase at 1000 nM incubated for 72 hrs by annexin V-FITC and PI staining based flow cytometry analysis. The class given is functional. (Flow cytometry measures light scatter and fluorescence of single cells or particles in a stream.)
Data set [2] concerns TERT-RPE1. The data set can be described thus: Induction of apoptosis in human RPE-1 cells assessed as early apoptotic cells at 100 to 2500 nM measured after 72 hrs by annexin V-FITC and PI staining based flow cytometry analysis. The data set is classed as functional, cell-based. As to conditions: dose 100-2500 nM.
The nature of data set [3]: Toxicity in human T cells derived from human PBMC assessed as early apoptotic cells at 0.1 uM measured for 48 hrs by annexin V-FITC and PI staining based flow cytometry analysis (reference value: 6.75 to 8.22 %). To be noted: t-cell.
A short description of data set [4]: Toxicity in NOD/SCID mouse assessed as tolerability at 100 mg/kg, po administered for 5 days. The class given is organism-based. As to conditions: in vivo, 120 h, time 5 day.
In data set [5] the test system is AHH-1. Description: Induction of cell cycle arrest in human AHH-1 cells assessed as accumulation of cells at G2/M phase at 100 nM incubated for 72 hrs by annexin V-FITC and PI staining based flow cytometry analysis. The class given is functional.
Another data set has as its system HeLa. The data set can be described thus: Induction of cell cycle arrest in human HeLa cells assessed as accumulation of cells at G2/M phase at 100 nM incubated for 72 hrs by annexin V-FITC and PI staining based flow cytometry analysis. The data set is classed as functional.
The nature of data set [6]: Toxicity in human T cells derived from human PBMC assessed as viable cells at 2.5 uM measured for 48 hrs by annexin V-FITC and PI staining based flow cytometry analysis (reference value: 77.5 to 79.5 %). The data set is classed as cell-based, T-cell. As to conditions: read-out: Activity.
Data set [7] is described as follows: Toxicity in human T cells derived from human PBMC assessed as early apoptotic cells at 1 uM measured for 72 hrs by annexin V-FITC and PI staining based flow cytometry analysis (reference value: 9.70 to […]). As to conditions: t-cell.
The test system of data set [8] is AHH-1. The data set can be described thus: Induction of cell cycle arrest in human AHH-1 cells assessed as accumulation of cells at G1 phase at 100 nM incubated for 72 hrs by annexin V-FITC and PI staining based flow cytometry analysis. The data set is classed as functional.
Data set [9] deals with TMD8. The data set can be described thus: Antitumor activity against human TMD8 cells xenografted in NOD/SCID mouse assessed as reduction in tumor volume at 100 mg/kg, po administered for 5 days and measured on day 9. The class given is functional. As to conditions: time 9 day. (Xenograft models place foreign cells or tissue in a host animal.)
Data set [10] has as its system AHH-1. The data set can be described thus: Induction of cell cycle arrest in human AHH-1 cells assessed as accumulation of cells at S phase at 2500 nM incubated for 72 hrs by annexin V-FITC and PI staining based flow cytometry analysis. The data set is classed as functional.
A further data set addresses Tubulin. The data set can be described thus: Inhibition of tubulin polymerization (unknown origin) incubated for 20 mins in presence of GTP by spectrophotometric analysis. The class given is protein-complex assay, Homo sapiens.
Data set [11] deals with TERT-RPE1. Description: Induction of cell cycle arrest in human TERT-RPE1 cells assessed as accumulation of cells at G1 phase at 100 nM incubated for 72 hrs by annexin V-FITC and PI staining based flow cytometry analysis. The data set is classed as functional.
Data set [12] deals with TMD8. The data set can be described thus: Antitumor activity against human TMD8 cells xenografted in NOD/SCID mouse assessed as reduction in tumor volume at 100 mg/kg, po administered for 5 days and measured on day 6. The data set is classed as functional. To be noted: time 6 day.

Active and inactive are the calls of the source. No cut-off for these calls is given here.

For orientation: IC50 means the concentration that inhibits the measured activity by half. As for `COc1cc(C(=O)c2ccn(-c3ncnc4[nH]ccc34)c2)cc(OC)c1OC`, the Activity in the data set with AHH-1 [1] is listed as 9.5%; in data set [3], 5.88%; in data set [4] it was “Non-Toxic”; in the data set on AHH-1 [5], 32%; with HeLa, 28.3%; in [7] it was 11.6%. Besides, the Activity was found to be 37.1% in the data set on AHH-1 [8]; 402 mm3 in the data set on TMD8 [9]; 19.4% in the data set with AHH-1 [10]; 13.9% with TERT-RPE1 [11]; 407 mm3 in the data set with TMD8 [12]. The result in the data set on TERT-RPE1 [2] was Active. Moreover, in [6], the viability at 48 h, 2.5 µM worked out at 72.7%. Moreover, on Tubulin, the IC50 came out at 0.28 µM.

Values taken from ChEMBL document CHEMBL5352470, “RS6077 induces mitotic arrest and selectively activates cell death in human cancer cell lines and in a lymphoma tumor in vivo” (Eur J Med Chem, 2023).
